Assay results reported in patent publication US20240156971A1, “METHODS AND SORTILIN BINDING CONJUGATE COMPOUNDS FOR TARGETING CANCER STEM CELLS” (TRANSFERT PLUS, SOCIÉTÉ EN COMMANDITE, priority 2021, published 2024).
Square brackets hold non-standard residues; d marks the D form. Ends that are not written are not given here. Nle = CCCC[C@H](N)C(=O)O

Key:
hBCSCs [1] = test: Scratch (wound-healing) assay of hBCSC migration; format: cell-based, human; settings: 2 h treatment, 2 μM docetaxel or 1 μM TH1902; images at 24 and 48 h
Description: Inhibition of hBCSC Migration by Test Articles. Cell migration experiments were carried out using the scratch (wound-healing) assay. Cells (2.8×10^5 cells /well) were plated in 6-well plates for 24 hours and then scratched using a sterile p200 pipette tip. Cells were washed with serum-free medium to remove the detached cells, then treated for 2 hours with serum-free medium containing vehicle (DMSO), 2 μM Docetaxel, or 1 μM TH1902. Cells were rinsed with complete media and incubated for 48 hours in a fresh complete media. Images were acquired, at 0, 24 and 48 hours after scratching, with an inverted microscope.

hBCSCs [2] = test: hBCSC apoptosis by flow cytometry (annexin V-FITC/PI); format: cell-based, human; settings: 2 h treatment, 4 μM docetaxel or 2 μM TH1902; 22 h, 48 h, 72 h post-treatment
Description: Assessment of hBCSC Apoptosis by Flow Cytometry. AnnexinV/PI staining was performed using an Apoptosis Detection Kit (BD Pharmingen, Mississauga ON) according to the manufacturer's instructions. Briefly, hBCSCs (1.3×10^5 cells/well) were seeded for 24 hours in 12-well plates. Cells were treated in serum-deprived medium for 2 hours with vehicle (DMSO), 4 μM Docetaxel or 2 μM TH1902. Cells were washed with complete medium and incubated in fresh complete medium for 22, 48, and 72 hours. Cells were finally harvested, resuspended in a staining solution of 100 μl of 1×binding buffer containing 5 μL of annexinV-FITC and 5 μL of PI. Cells were incubated for 15 minutes at room temperature in the dark before analysis by flow cytometry. The extent of apoptosis was measured, then analyzed using BD Accuri™ C6 software.

hBCSCs [3] = test: Cell cycle analysis (G2/M) of hBCSCs; format: cell-based, human; settings: 2 h with 4 μM docetaxel or 2 μM TH1902, then 22 h or 48 h
Description: (§1) Cell Cycle Analysis Following Treatment of hBCSC by Test Articles. hBCSCs (2.8×10^5 cells/well) and MDA-MB-231/luc cells (2.3×10^5 cells/well) were seeded in 6-well plates one day prior to treatment. To test the effects of Docetaxel and TH1902 on cell cycle phases, hBCSCs and MDA-MB-231/luc cells were treated for 2 hours in serum-free media with vehicle (DMSO), 4 μM docetaxel or 2 μM TH1902 (equimolar of docetaxel), rinsed with complete media and incubated in fresh complete media for 22 and 48 hours. For the experiments with the P-gp inhibitors, hBCSCs were first pre-treated for 30 minutes in serum-free media with vehicle (DMSO), or 10 μM cyclosporine A or PSC-833 (P-gp inhibitors). Next, cells were treated for 2 hours with 4 μM docetaxel or 2 μM TH1902 in the continued presence or absence of the P-gp inhibitors before being rinsed and incubated in fresh complete media in the continued presence or absence of the P-gp inhibitors. Cells were then incubated for 22 and 48 hours. In both assays, following the incubation, cells were detached with trypsin, fixed with ice-cold 70% EtOH and kept overnight at 4° C. Cells were washed once with PBS, after which they were stained for 30 minutes at room temperature with FxCycle™ PI/RNase Staining Solution (Thermo Scientific, Waltham, MA; #F10797). Cells were finally subjected to cell cycle analysis using a BD Accuri™ C6 flow cytometer.

hBCSCs [4] = test: Cell cycle analysis (G2/M) of hBCSCs with or without P-gp inhibitors; format: cell-based, human
Description: as §1

[5] = system: MDA-MB-231/luciferase tumor xenografts; test: Cancer relapse in MDA-MB-231/luciferase xenograft mouse model of TNBC; format: in vivo, mice; settings: treated at day 0, 7, 14 and 21; for cancer relapse at later time points (day 74): assessed up to day 74
Description: It was then assessed whether treatment with docetaxel or TH1902 could prevent cancer relapse using the MDA-MB-231/luciferase xenograft mouse model of TNBC. The MDA-MB-231 tumor cell has been reported to have cells with cancer stem cell (CSC)-like properties (Sleeboom et al., Int J Mol Sci. 2018 October; 19(10): 3047; Ghanbari et al., Int. J. Morphol., 34(4):1197-1202, 2016). Mice with MDA-MB-231/luciferase tumor xenografts were treated a day 0, 7, 14 and 21 with either vehicle (control), Docetaxel or TH1902 and tumor growth was assessed up to day 74.

pancreatic CSCs = test: Growth of tumors originating from pancreatic CSCs in mice; format: in vivo; settings: TH1902 at doses equivalent to 1, 1.25 or 1.5 the MTD of docetaxel; docetaxel 15 mg/kg (MTD)
Text: In vivo Assessment of Docetaxel and TH1902 Anti-Tumor Efficacy. Tumor xenografts were established by subcutaneous inoculation of 10^3 hBCSC cells, hOvCSC and hPCSC resuspended in […] of HBSS containing 50% Matrigel™, into the right flank of NCG triple immunodeficient female mice (Charles River, Saint-Constant QC) under light isoflurane anesthesia. Three days following implantation of either hBCSC or hOvCSCS, mice commenced receiving weekly treatment by intravenous bolus injections of vehicle (10% polysorbate-80, 5% dextrose, 0.04% formic acid pH 4.3), docetaxel (15 mg/kg (the MTD for this agent) or 3.75 mg/kg (¼ MTD for this agent), dissolved in 5% dextrose, 3.3% ethanol, 1.7% Tween™-80) or TH1902 (35 mg/kg or 8.75 mg/kg) dissolved in vehicle. Note that the two TH1902 and docetaxel concentrations contain equimolar amounts of docetaxel due to the two docetaxel moieties per TH1902 molecule. Tumor growth was measured using two-dimensional measurements taken with an electronic caliper, and tumor volume was calculated according to the following formula: tumor volume (mm^3)=π/6×length×width^2. Animal weights were measured three times per week with a precision of 10 mg.

Row | Compound | recolonization of scratched region by hBCSCs (migration) (hBCSCs [1]) | total apoptosis (hBCSCs [2]) | G2/M cell cycle arrest (hBCSCs [3]) | G2/M cell cycle arrest in the presence of CsA (hBCSCs [4]; 10 μM CsA, 4 μM docetaxel or 2 μM TH1902) | G2/M cell cycle arrest in the presence of PCC-831 (hBCSCs [4]; 10 μM inhibitor, 4 μM docetaxel or 2 μM TH1902) | proportion of cells in G2/M phase (hBCSCs [4]; no efflux inhibitor, 4 μM docetaxel or 2 μM TH1902, FIG. 6C-D) | tumor growth during and shortly after administration [5] | cancer relapse at later time points (day 74) [5] | growth of tumors originating from pancreatic CSCs (pancreatic CSCs)
1 | Acetyl-GVRAK(docetaxel)AGVRN(Nle)FK(docetaxel)SESY (Ac-GVRAK(docetaxel)AGVRN[Nle]FK(docetaxel)SESY) [TH1902] | remained virtually barren of hBCSC for at least 48 hours | large increase in apoptosis | significant increase in G2/M cell cycle arrest | no effect | no effect | strong increase in the proportion of cells in G2/M phase | reduction in tumor growth | No residual tumor could be detected | significant inhibition of the growth of tumors
2 | CC(=O)O[C@@]12CO[C@@H]1C[C@H](O)[C@@]1(C)C(=O)[C@H](O)C3=C(C)[C@@H](OC(=O)[C@H](O)[C@@H](NC(=O)OC(C)(C)C)c4ccccc4)C[C@@](O)([C@@H](OC(=O)c4ccccc4)[C@H]21)C3(C)C [docetaxel, reference compound] | completely recolonized | indistinguishable from that seen in control cells | not |  |  |  | reduction in tumor growth | tumor resurgence was observed | no significant reduction of tumor growth
